Source: BindingDB's records for doi:10.1111/j.1476-5381.1994.tb14064.x (Glaxo Group Research, 1994)

What was measured:
[1] = target: Alpha-1A adrenergic receptor (Rattus norvegicus, UniProt P43140)
[2] = target: Kappa-type opioid receptor (Rattus norvegicus, UniProt P34975)
[3] = target: Adenosine receptor A2a (Rattus norvegicus, UniProt P30543)
[4] = target: Rat vasopressin-neurophysin (Rattus norvegicus, UniProt Q6LEI5)
[5] = target: Beta-2 adrenergic receptor (Cavia porcellus, UniProt Q8K4Z4)
[6] = target: Galanin peptides (Rattus norvegicus, UniProt P10683)
[7] = target: Hrh3 protein (Rattus norvegicus, UniProt Q5PPG3)
[8] = target: Pro-neuropeptide Y (Rattus norvegicus, UniProt P07808)
[9] = target: B1 bradykinin receptor (Rattus norvegicus, UniProt P97583)
[10] = target: Gamma-aminobutyric acid receptor subunit alpha-1 (Rattus norvegicus, UniProt P62813)
[11] = target: Substance-K receptor (Rattus norvegicus, UniProt P16610)
[12] = target: Bombesin receptor subtype-3 (Rattus norvegicus, UniProt Q8K418)
[13] = target: Nicotinic acetylcholine receptor (Rattus leucopus, UniProt Q62594)
[14] = target: Mu-type opioid receptor (Rattus norvegicus, UniProt P33535)
[15] = target: Histamine H1 receptor (Rattus norvegicus, UniProt P31390)
[16] = target: Glycine amidinotransferase, mitochondrial (Rattus norvegicus, UniProt P50442)
[17] = target: Gastrin/cholecystokinin type B receptor (Rattus norvegicus, UniProt P30553)
[18] = target: 5-hydroxytryptamine receptor 3A (Rattus norvegicus, UniProt P35563)
[19] = target: 5-hydroxytryptamine receptor 2C (Sus scrofa, UniProt K7GSR7)
[20] = target: Adenosine receptor A1 (Rattus norvegicus, UniProt P25099)
[21] = target: Somatostatin (Rattus norvegicus, UniProt P60042)
[22] = target: Calcitonin gene-related peptide 1 (Rattus norvegicus, UniProt P01256)
[23] = target: Alpha-2C adrenergic receptor (Rattus norvegicus, UniProt P22086)
[24] = target: Muscarinic acetylcholine receptor M1 (Rattus norvegicus, UniProt P08482)
[25] = target: D(1A) dopamine receptor (Rattus norvegicus, UniProt P18901)
[26] = target: Endothelin-converting enzyme 1 (Rattus norvegicus, UniProt P42893)
[27] = target: Substance-P receptor (Rattus norvegicus, UniProt P14600)
[28] = target: Vasopressin V2 receptor (Rattus norvegicus, UniProt Q00788)
[29] = target: Gamma-aminobutyric acid (GABA) B receptor 1 (Rattus norvegicus, UniProt Q6MFX8)
[30] = target: Glutamate receptor ionotropic, NMDA 1 (Rattus norvegicus, UniProt P35439)
[31] = target: Muscarinic acetylcholine receptor M2 (Rattus norvegicus, UniProt P10980)
[32] = target: D(2) dopamine receptor (Rattus norvegicus, UniProt P61169)
[33] = target: Muscarinic acetylcholine receptor M3 (Rattus norvegicus, UniProt P08483)
[34] = target: Neuromedin-K receptor (Mus musculus, UniProt P47937)
[35] = target: VIP peptides (Rattus norvegicus, UniProt P01283)
[36] = target: Beta-1 adrenergic receptor (Rattus norvegicus, UniProt P18090)

Measured: Ki

Chain of Glycine amidinotransferase, mitochondrial (P50442 whole entry): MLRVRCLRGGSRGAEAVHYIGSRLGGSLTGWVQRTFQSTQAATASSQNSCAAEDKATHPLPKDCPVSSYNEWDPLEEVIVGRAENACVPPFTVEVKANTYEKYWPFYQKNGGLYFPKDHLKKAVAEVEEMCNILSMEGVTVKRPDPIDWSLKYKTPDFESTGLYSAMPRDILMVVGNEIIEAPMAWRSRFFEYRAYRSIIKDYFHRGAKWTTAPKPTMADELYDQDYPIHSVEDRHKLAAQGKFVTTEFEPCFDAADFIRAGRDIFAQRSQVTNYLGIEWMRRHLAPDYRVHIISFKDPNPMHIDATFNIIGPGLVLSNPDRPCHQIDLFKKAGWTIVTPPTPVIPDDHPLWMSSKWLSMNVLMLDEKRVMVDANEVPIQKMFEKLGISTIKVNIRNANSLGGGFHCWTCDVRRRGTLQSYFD
Chain of Adenosine receptor A2a (P30543 whole entry): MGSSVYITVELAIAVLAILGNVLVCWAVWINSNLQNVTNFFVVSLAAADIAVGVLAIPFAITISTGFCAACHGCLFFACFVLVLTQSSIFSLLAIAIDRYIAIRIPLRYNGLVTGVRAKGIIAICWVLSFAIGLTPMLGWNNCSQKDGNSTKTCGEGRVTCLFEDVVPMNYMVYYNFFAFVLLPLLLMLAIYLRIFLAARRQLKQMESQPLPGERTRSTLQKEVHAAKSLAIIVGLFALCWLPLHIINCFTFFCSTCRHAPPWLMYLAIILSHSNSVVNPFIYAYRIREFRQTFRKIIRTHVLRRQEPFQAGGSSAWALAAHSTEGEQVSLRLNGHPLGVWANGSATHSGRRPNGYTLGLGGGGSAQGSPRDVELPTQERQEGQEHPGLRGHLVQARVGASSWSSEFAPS
Chain of Gamma-aminobutyric acid receptor subunit alpha-1 (P62813 whole entry): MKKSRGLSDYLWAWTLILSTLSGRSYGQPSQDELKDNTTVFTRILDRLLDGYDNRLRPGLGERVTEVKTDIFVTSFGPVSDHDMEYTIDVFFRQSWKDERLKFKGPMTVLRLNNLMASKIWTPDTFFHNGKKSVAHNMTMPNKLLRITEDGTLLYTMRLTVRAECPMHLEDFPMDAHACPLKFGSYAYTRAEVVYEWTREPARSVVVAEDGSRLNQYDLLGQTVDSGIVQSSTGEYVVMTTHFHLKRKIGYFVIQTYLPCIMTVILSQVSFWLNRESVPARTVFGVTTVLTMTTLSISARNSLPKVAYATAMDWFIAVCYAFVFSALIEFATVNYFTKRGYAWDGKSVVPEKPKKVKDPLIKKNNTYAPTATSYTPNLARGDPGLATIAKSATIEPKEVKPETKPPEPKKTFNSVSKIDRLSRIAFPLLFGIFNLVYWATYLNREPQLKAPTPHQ
Chain of VIP peptides (P01283 125-152 limits assumed): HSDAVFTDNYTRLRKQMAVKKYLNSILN
Chain of Neuromedin-K receptor (P47937 whole entry): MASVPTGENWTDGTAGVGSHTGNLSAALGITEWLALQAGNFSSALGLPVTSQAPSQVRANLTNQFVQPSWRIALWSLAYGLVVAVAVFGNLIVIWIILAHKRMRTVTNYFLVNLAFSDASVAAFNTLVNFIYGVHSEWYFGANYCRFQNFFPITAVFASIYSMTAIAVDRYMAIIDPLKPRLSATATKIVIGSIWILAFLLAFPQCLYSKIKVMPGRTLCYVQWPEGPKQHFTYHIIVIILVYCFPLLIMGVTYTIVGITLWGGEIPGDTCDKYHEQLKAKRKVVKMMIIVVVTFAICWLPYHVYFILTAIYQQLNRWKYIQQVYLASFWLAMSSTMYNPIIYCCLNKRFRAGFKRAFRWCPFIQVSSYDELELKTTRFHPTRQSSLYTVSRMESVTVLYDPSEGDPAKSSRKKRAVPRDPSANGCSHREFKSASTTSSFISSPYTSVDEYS
Chain of Rat vasopressin-neurophysin (Q6LEI5 whole entry): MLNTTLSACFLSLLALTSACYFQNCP
Chain of Mu-type opioid receptor (P33535 whole entry): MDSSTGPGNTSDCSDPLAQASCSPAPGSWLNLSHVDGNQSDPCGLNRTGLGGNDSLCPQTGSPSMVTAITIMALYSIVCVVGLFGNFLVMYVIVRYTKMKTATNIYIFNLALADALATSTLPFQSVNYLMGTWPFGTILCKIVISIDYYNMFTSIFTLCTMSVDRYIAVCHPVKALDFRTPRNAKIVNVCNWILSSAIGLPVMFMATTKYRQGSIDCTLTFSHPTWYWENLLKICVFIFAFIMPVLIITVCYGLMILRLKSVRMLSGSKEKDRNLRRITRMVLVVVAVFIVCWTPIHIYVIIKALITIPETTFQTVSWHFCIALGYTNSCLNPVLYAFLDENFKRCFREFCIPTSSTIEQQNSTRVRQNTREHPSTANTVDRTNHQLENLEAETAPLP
Chain of Beta-2 adrenergic receptor (Q8K4Z4 whole entry): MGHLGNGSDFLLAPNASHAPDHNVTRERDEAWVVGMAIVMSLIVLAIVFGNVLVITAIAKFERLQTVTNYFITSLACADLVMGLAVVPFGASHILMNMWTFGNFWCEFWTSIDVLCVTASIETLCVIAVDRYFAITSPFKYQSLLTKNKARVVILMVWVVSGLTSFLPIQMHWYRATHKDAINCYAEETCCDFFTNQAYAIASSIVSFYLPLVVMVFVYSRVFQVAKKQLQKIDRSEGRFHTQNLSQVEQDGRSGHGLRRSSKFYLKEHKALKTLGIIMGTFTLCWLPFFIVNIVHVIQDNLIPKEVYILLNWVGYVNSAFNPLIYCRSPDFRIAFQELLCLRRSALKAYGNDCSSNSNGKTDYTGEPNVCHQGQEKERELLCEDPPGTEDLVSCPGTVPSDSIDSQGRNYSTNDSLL
Chain of 5-hydroxytryptamine receptor 3A (P35563 whole entry): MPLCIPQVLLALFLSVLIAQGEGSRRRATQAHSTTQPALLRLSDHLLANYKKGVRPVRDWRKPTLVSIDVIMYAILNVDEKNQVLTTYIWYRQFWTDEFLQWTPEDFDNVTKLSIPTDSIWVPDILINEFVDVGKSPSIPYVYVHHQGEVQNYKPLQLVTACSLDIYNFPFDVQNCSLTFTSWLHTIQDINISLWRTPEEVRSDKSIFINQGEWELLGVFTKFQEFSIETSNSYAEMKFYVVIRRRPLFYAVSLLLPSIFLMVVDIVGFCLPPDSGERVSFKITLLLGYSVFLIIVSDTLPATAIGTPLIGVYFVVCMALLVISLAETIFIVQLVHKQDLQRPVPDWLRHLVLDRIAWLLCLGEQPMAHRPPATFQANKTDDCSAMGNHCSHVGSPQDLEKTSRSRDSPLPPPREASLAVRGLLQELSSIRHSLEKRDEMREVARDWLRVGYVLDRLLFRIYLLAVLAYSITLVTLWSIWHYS
Chain of Hrh3 protein (Q5PPG3 whole entry): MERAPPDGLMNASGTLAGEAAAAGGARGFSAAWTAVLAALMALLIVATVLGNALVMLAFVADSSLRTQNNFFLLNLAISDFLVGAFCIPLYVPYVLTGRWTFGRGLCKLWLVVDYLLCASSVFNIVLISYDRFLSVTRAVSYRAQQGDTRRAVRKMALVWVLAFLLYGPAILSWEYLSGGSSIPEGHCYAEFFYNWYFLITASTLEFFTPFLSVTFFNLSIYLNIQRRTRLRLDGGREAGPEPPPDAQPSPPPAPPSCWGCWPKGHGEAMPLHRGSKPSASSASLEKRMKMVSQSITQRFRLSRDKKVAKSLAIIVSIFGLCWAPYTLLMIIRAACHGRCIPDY
Chain of Muscarinic acetylcholine receptor M1 (P08482 whole entry): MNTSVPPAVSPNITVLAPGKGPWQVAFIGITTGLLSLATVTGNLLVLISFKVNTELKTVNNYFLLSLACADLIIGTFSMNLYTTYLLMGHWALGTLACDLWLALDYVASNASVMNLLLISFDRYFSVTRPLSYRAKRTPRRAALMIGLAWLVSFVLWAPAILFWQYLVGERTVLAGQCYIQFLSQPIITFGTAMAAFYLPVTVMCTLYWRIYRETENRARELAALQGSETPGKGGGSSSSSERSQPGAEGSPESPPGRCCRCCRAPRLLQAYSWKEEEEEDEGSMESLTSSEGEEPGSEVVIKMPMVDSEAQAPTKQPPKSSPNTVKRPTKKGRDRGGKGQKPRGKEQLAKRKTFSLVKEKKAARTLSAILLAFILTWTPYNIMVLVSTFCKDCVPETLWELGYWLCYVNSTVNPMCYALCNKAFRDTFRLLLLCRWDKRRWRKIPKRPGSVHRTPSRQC
Chain of Substance-K receptor (P16610 whole entry): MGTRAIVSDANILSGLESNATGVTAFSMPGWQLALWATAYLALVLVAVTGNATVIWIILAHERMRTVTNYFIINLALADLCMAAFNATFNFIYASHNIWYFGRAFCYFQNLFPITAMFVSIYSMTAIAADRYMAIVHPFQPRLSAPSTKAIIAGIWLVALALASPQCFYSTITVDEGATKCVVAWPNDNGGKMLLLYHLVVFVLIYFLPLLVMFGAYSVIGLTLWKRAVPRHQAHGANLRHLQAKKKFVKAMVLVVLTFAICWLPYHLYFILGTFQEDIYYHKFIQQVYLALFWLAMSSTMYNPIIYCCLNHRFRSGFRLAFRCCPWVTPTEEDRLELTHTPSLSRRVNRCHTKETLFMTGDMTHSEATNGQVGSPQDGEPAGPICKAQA
Chain of Galanin peptides (P10683 33-61 limits assumed): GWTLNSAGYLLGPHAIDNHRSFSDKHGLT
Chain of Substance-P receptor (P14600 whole entry): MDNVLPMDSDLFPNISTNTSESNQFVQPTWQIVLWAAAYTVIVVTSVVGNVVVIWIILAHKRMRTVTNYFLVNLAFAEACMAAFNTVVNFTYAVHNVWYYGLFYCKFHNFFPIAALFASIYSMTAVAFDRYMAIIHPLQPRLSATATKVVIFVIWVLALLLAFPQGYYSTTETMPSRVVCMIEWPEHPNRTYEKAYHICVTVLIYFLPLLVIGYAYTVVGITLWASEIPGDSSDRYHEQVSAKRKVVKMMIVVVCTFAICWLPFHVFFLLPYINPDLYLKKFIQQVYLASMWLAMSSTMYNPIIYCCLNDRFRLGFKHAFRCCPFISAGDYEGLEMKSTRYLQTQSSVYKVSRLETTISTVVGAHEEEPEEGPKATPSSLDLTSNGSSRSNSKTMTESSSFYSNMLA
Chain of Nicotinic acetylcholine receptor (Q62594 whole entry): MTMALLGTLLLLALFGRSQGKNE

Cn1cc(C(=O)OCC2CCN(CCNS(C)(=O)=O)CC2)c2ccccc21 [GR 113808]
1 µM: [18]
6.31 µM: [24]
7.94 µM: [36]
> 10 µM: all other assays above
